Earlier results on nine compounds are cited in patent US4410715A, “Process for the epoxidation of olefins using a group V metal co-catalyst I and a phenolic hydrocarbon co-catalyst II” (Exxon Research & Engineering Co., priority 1982, dated 1983).

The conditions of one data set: aqueous solution at 25° C.
As for `Oc1ccc(Cl)cc1Cl` [2,4-DCP, 2,4-dichlorophenol], the pKa was 7.7.
In the case of `CC(C)(C)c1ccc(O)c(C(C)(C)C)c1` [2,4-di-t-butyl phenol], the pKa is given as 11.6.
Turning to `Oc1c(Cl)cccc1Cl` [2,6-DCP, 2,6-dichlorophenol], the pKa is 6.8.
Turning to `COc1ccccc1O` [2-methoxy-phenol, 2-methoxyphenol], the pKa is 10.0.
On to `Oc1cccc(Cl)c1` [m-chlorophenol], for which the pKa is 8.8.
Consider `Oc1ccccc1Cl` [o-chlorophenol], for which the pKa is 8.5.
Consider `Oc1ccc(Cl)cc1` [p-chlorophenol], for which the pKa was 9.2.
Take `Cc1ccc(O)cc1` [p-cresol]: the pKa is on record as 10.2.

Still in this data set, the particulars now being: in place of a pKa value.
For `C1COCCO1` [1,4-dioxane, reference compound], the “basicity (footnote to pKa column, in words)” value is on record as “basic”.
